What was measured:
H1-EPSCs = assay: Requirement of individual culture components for hEPSCs (RT-qPCR, AP+ colony formation); type: cell-based, human; details: in the presence of 5.0 ng/ml
Description: Porcine and human EPSC cultures were routinely maintained on STO feeders. STO feeder plates were prepared 3-4 days before passaging by thawing and plating the mitomycin C inactivated STO cells on 0.1% gelatinised plates at the density of ˜1.1×10^4 cells/cm^2. Porcine/human EPSC cells were maintained on STO feeder layers and enzymatically passaged every 3-5 days by a brief PBS wash followed by treatment for 3-5 minutes with 0.25% trypsin/EDTA (Gibco, Cat. No. 25500-054). The cells were dissociated and centrifuged (300 g×5 minutes) in M10 medium. M10: knockout DMEM (Gibco, Cat. No. 10829-018), 10% FBS (Gibco, Cat. No. 10270), 1× Glutamine Penicillin-Streptomycin (Thermo Fisher Scientific, Cat. No. 11140050) and 1×NEAA (Thermo Fisher Scientific, Cat. No. 10378-016). After removing supernatant, the porcine/human EPSCs were re-suspended and seeded in pEPSCM/hEPSCM supplemented with 5 μM ROCK inhibitor Y-27632 (Tocris, Cat. No. 1254). 5% FBS (Gibco, Cat. No. 10270) and 10% KnockOut Serum Replacement (KSR) (Gibco, Cat. No. 10828028) were added in pEPSCM and hEPSCM respectively to improve cells survive. 12-24 hours later, medium was switched to pEPSCM/hEPSCM only. Both pEPSCM and hEPSCM are N2B27 based media. N2B27 basal media (500 ml) was prepared by inclusion of the following components: 482.5 ml DMEM/F-12 (Gibco, Cat. No. 21331-020), 2.5 ml N2 supplement (Thermo Fisher Scientific, Cat. No. 17502048), 5 ml B27 supplement (Thermo Fisher Scientific, Cat. No. 17504044), 5 ml 1× Glutamine Penicillin-Streptomycin (Thermo Fisher Scientific, Cat. No. 11140-050), and 5 ml 1×NEAA (Thermo Fisher Scientific, Cat. No. 10378-016), 0.1 mM 2-mercaptoethanol (Sigma, Cat. No. M6250). pEPSCM (500 ml) was generated by adding the following small molecules and cytokines into 500 ml N2B27 basal media: 0.2 μM CHIR99021(GSK3i, TOCRIS, Cat. No. 4423), 1 μM WH-4-023 (SRC inhibitor, TOCRIS, Cat. No. 5413), 2.5 μM XAV939 (Sigma, Cat. No. X3004) or 2.5 μM IWR-1 (TOCRIS, Cat. No. 3532), […] Vitamin C (Sigma, Cat. No. 49752-100G), 10 ng/ml LIF (Stem Cell Institute, University of Cambridge. SCI) and 20 ng/ml ACTIVIN (SCI). hEPSCM (500 ml) was generated by adding the following components into 500 ml N2B27 basal media: 1.0 μM CHIR99021(GSK3 inhibitor, TOCRIS, Cat. No. 4423), 0.5 μM A-419259 (SRC inhibitor, TOCRIS, Cat. No. 3914), 2.5 μM XAV939 (Sigma, Cat. No. X3004), […] Vitamin C (Sigma, Cat. No. 49752-100G), 10 ng/ml LIF (SCI). Although both targeting SRC family kinases (SFKs), WH-4-023 and A419259 were preferred for porcine and human EPSCs, respectively. […] The concentrations of CHIR99021 for porcine and human EPSC cultures are 0.2 μM and 1.0 μM, respectively. […] 0.25 μM SB 590885 (BRAF inhibitor, R&D, Cat. No. 2650) and 2.0 μM SP600125 ([…], TOCRIS, Cat. No. 1496) were included to improve porcine and human EPSC cultures, but they were not essential for the routine maintenance of porcine and human EPSCs. All cell cultures in this paper were performed under conditions of 37° C. and 5% CO2 unless stated otherwise.
Total RNA was isolated using an RNeasy Mini Kit (Qiagen, Cat. No. 74106) for cultured cells or RNeasy Micro Kit (Qiagen, Cat. No. 74034) for sorted NANOS3-mCherry^+ cells. RNA was subsequently quantified and treated with gDNA WipeOut to remove genomic DNA. Complementary DNA (cDNA) was prepared using a QuantiTect Reverse Transcription Kit (Qiagen, Cat. No. 205311). RT-qPCR primers or TaqMan Gene Expression Assays (Life Technologies) are listed in Supplementary Table 10 and 11. ABsolute Blue qPCR ROX Mix (ABgene, Cat. No. AB4138B) were used for probe based qPCR assays and SYBR Green ROX qPCR Mastermix (Qiagen, Cat. No. 330523) were used for primer based qPCR assays. All qPCR reactions were performed on ABI 7900 HT Sequence Detection System (Life Technologies). Information on all primers and probes used for qPCR analysis are provided in Supplementary Table 10 and 11. Gene expression was determined relative to GAPDH using the […]. […]

[1] = tested on: human ES cell (hESC) lines (H1, H9, M1, M10); assay: Culture of human ES cell lines in pEPSCM minus ACTIVIN A (colony formation); type: cell-based; details: removing ACTIVIN A (20 ng/ml) from pEPSCM
Description: Human ESCs have been widely used in studying human embryo development in vitro and hold great potential for regenerative medicine. The finding that inhibition of SRC and Tankyrases is sufficient to convert mouse ESCs to mEPSCs and that these two inhibitors are required for the generation of pEPSCs raises the possibility that similar in vitro culture conditions may also work for other mammalian species. To explore this possibility, four established human ES cell (hESC) lines (H1, H9, Man1 or M1, and Man10 or M10 cells) are cultured in pEPSCM and passaged them up to three times. […] Removing ACTIVIN A (20 ng/ml) from pEPSCM led to considerably fewer cell colonies formed from H1 (<1.0%) and M1 (5.0%) ESC cultures, while none from H9 or M10 (Extended Data FIG. 7a), which is consistent with the inherent between-line heterogeneity of human ESCs. With further refinement of the culture conditions (for example, replacing WH-4-023 with another SRC inhibitor A419259 in hEPSCM, see Methods), morphologically homogenous and stable cell lines were established from single-cell sub-cloned H1 (H1-EPSCs) and M1 cells (M1-EPSCs) (FIG. 3a).

ACTIVIN A: Human Recombinant ACTIVIN A cytokine
cell survival at passaging (H1-EPSCs): substantially improved | cell colonies formed ([1]; H1 ESC culture): < 1.0% | cell colonies formed ([1]; H9): none | cell colonies formed ([1]; M1 ESC culture): 5.0% | cell colonies formed ([1]; M10): none
